{"source": "paper PMC3792051", "about": "“Polyenylpyrrole Derivatives Inhibit NLRP3 Inflammasome Activation and Inflammatory Mediator Expression by Reducing Reactive Oxygen Species Production and Mitogen-Activated Protein Kinase Activation” (PLoS ONE, 2013)", "key": {"[1]": {"system": "LPS-activated primary peritoneal macrophages", "test": "IL-6 and TNF-α secretion by ELISA", "assay_type": "cell-based, C57BL/6 mice", "conditions": "10-40 µM, LPS 1 µg/ml 24 h", "procedure": "The effects of the test samples on IL-1β, TNF-α, and IL-6 production were measured by ELISA according to the manufacturer’s instructions. In brief, 50 µl of biotinylated antibody reagent and 50 µl of supernatant were added to a stripwell plate precoated with anti-mouse IL-1β, TNF-α, or IL-6 antibodies, which was then incubated at room temperature for 2 h. After washing the plate three times with washing buffer, 100 µl of diluted streptavidin-HRP concentrate was added to each well and the plate incubated at room temperature for 30 min. […] After addition of 100 µl of stop solution to each well, the absorbance at 450 nm of each well was measured on a microplate reader.\nFigure 3 Effect of compound 1h on LPS-induced secretion of IL-6 and TNF-α by J774A.1 macrophages, peritoneal macrophages, and JAWSII dendritic cells. (A) J774A.1 macrophages, (B) peritoneal macrophages, or (C) JAWSII dendritic cells (all 4 × 10^5/ml; 1 ml) were incubated for 30 min with 10-40 µM compound 1h or DMSO, then LPS (1 µg/ml) was added and incubation continued for 24 h, then IL-6 levels (left panels) and TNF-α levels (right panels) in the culture medium were measured by ELISA. The data are expressed as the mean ± SD for three separate experiments. *, **, and *** indicate a significant difference at the level of p < 0.05, p < 0.01, or p < 0.001, respectively, compared to the DMSO/LPS group."}, "[2]": {"system": "LPS-activated RAW 264.7 macrophages", "test": "Intracellular ROS production (DCF fluorescence), LPS-induced", "assay_type": "cell-based, murine", "conditions": "RAW 264.7, 30 min pretreatment; compound 1h 20 µM, NAC 10 mM", "procedure": "Intracellular ROS production was measured by detecting the fluorescence intensity of the 2’, 7’-dichlorofluorescein, the oxidation product of 2’, 7’-dichlorofluorescein diacetate (Molecular Probes, Eugene, OR). In one study, RAW 264.7 macrophages (5 × 10^5/ml; 0.1 ml) were incubated with vehicle, compound 1h (20 µM), or NAC (10 mM) for 30 min, then 2’, 7’-dichlorofluorescein diacetate (2 µM) was added for 30 min, then LPS was added for the indicated time. In another, J774A.1 macrophages (5 × 10^5/ml; 0.1 ml) were incubated with LPS (1 µg/ml) for 6 h, then vehicle, compound 1h (20 µM), or DPI (25 µM) was added for 30 min. 2’, 7’-dichlorofluorescein diacetate (2 µM) was then added for 30 min before incubation with ATP (5 mM) for the indicated time; while, in another, the order of addition of compound1h/DPI and LPS was reversed. The fluorescence intensity of 2’, 7’-dichlorofluorescein was detected at an excitation wavelength of 485 nm and an emission wavelength of 530 nm on a microplate absorbance reader (Bio-Rad Laboratories, Inc).\nTo test whether compound 1h exerted its anti-inflammatory effect on LPS-activated cells by downregulation of ROS production, intracellular ROS production in LPS-activated RAW 264.7 macrophages was measured.\nFigure 5 Effect of compound 1h on ROS production and MAPK phosphorylation in LPS-activated macrophages. […]"}}, "data": [{"smiles": "O=c1cc(O)cc(/C=C/C=C/C=C/C=C/c2[nH]ccc2Cl)o1", "note": "[compound 1h]", "values": [{"measurement": "LPS-induced IL-6 secretion", "setting": "[1]", "value": "reduced secretion of IL-6 and TNF-α"}, {"measurement": "LPS-induced TNF-α secretion", "setting": "[1]", "value": "reduced secretion of IL-6 and TNF-α"}, {"measurement": "LPS-stimulated ROS production", "setting": "[2]", "value": "reduced LPS-stimulated ROS production"}]}]}
